Measurements as given in patent US20240342148A1, “METHODS OF TREATING FACIOSCAPULOHUMERAL MUSCULAR DYSTROPHY WITH LOSMAPIMOD” (Fulcrum Therapeutics, Inc., priority 2021, published 2024).

Key:
subjects with FSHD1 = experiment: Muscle ultrasound echogenicity, open-label study in FSHD1; format: in vivo, human
Experimental: Fourteen subjects age 18 to 65 years with genetically confirmed FSHD1, clinical severity score of 2 to 4 (range 0-5) and MRI-eligible skeletal muscles for needle biopsy received open-label 15 mg twice daily losmapimod for 52 weeks with the primary objective of safety. Assessments included safety, MRI, muscle ultrasound (US), clinical outcomes, and PROs. US was performed on 7 muscles bilaterally using a standardized protocol. US echointensity was expressed as a z-score relative to matched healthy controls, with abnormal being defined as >2.

p38a/b MAPK pathway = experiment: Target engagement in blood: pHSP27/HSP27total ELISA after ex vivo sorbitol stimulation; parameters: species or system human
Experimental: Blood samples for target engagement were collected at D1 and Wk16 or Wk36, at the same pre- and post-dose time points as PK samples.
Blood samples for measurement of total heat shock protein 27 (HSP27total) and phosphorylated heat shock protein 27 (pHSP27) were collected into EDTA-containing tubes. Two mL of whole blood was stimulated ex vivo with sorbitol for 30 minutes at room temperature to induce phosphorylation of HSP27 as a measure of p38a/b MAPK activity. Sorbitol stimulation activates the p38a/b MAPK pathway in blood and allows for more robust detection of inhibition of the p38a/b MAPK pathway by losmapimod. Subsequently, samples were lysed on ice and lysates frozen at −80° C. pHSP27 and HSP27total were measured by a validated enzyme-linked immunosorbent assay method (Cambridge Biomedical Inc., Boston, MA, USA and Immunologix, Tampa, FL, USA). Inter- and intra-assay precision for both pHSP27 and HSP27total met the preapproved criteria of <25% CV having been run in 5 replicates with the LLOQ established for pHSP27 at 20.7 ng/ml and ULOQ at 470.1 ng/ml and the LLOQ established for HSP27total at 105.2 ng/ml and ULOQ at 2168.1 ng/mL.

patients with FSHD1 = experiment: Wearable sensor (Actimyo) physical activity, open label study; format: in vivo, human; details: over 1 year treatment; Mild or Upper group compared to Lower or Both group
Experimental: This study evaluated feasibility to monitor daily activity and assess functional outcomes using wearable sensor devices in an open label study (OLS) of losmapimod in facioscapulohumeral muscular dystrophy (FSHD). 14 patients with FSHD1 received 15 mg losmapimod twice per day for a 52 week open label treatment period.
Feasibility was measured by the reliability of the data over time and amount of background noise. The secondary objective was patients' compliance with using the wearable device.
Upper limb and lower limb mobility were evaluated with “Actimyo” made by Sysnav. Actimyo quantifies movements of patients with neuromuscular disorders such as Duchenne muscular dystrophy (DMD), Spinal amyotrophy (SMA), Parkinson's and records activity based on magneto-inertial navigation. Raw data from the sensors are loaded on to the internal memory of the docking station/charging unit, and transmitted daily via an internet connection to a remote storage platform. Participants are provided with two watch like sensors to measure movements: On the ankle for lower extremity movements like gait; and On the wrist for upper extremity movements like mobility. Two kinds of movements were evaluated: Free living movement, which was recorded by wearing two devices all day (12-16 hours); and Imposed movements (2 times per day), which were a set of movements evaluated twice daily.

subjects with FSHD [1] = experiment: Reachable workspace (RWS) relative surface area, RCT; format: in vivo, human
Experimental: Continuous secondary and exploratory efficacy endpoints with 2 or more postbaseline follow-ups were analyzed using a mixed-effects model for repeated measures (MMRM), with change from baseline as the dependent variable, and treatment group, visit, treatment group-by-visit interaction, and FSHD repeat number category as fixed effects, and baseline value as a covariate. An unstructured covariance matrix was used to model the correlations among repeated measurements within each subject. The Kenward-Roger approximation was used to estimate denominator degrees of freedom. The RWS RSA score was also analyzed using a linear mixed-effects model, with treatment group as a fixed effect, and intercept, time and treatment group-by-time interaction as random effects, and with adjustment for FSHD repeat number category and region (USA, Canada, and EU). An unstructured covariance matrix was used. The RWS was performed at all visits, except for Week 16. It uses a single, 3D sensor-based system (Microsoft […]) that can unobtrusively detect subjects' RWS and reflects individual global upper extremity (UE) function, including shoulder and proximal arm. RWS has high reliability, repeatability, face validity, feasibility, sensitivity to change, and promise as a clinical outcome assessment (COA) for FSHD and other neuromuscular disorders. During the evaluation, patients were seated in front of the Microsoft […] sensor and underwent a standardized UE movement protocol while looking at a TV monitor. The evaluation was performed with and without 500 g weights two times per visit. All sites were provided and trained with the same standardized software and hardware by the sponsor. A central reader was responsible for training, quality control, data analysis, and standardization of the RWS across all sites in the study.

subjects with FSHD [2] = experiment: Timed Up and Go (TUG); format: in vivo, human; details: nonsignificant
Experimental: (§1) TUG assessments were performed at all visits, except for Wk16. The TUG test is a simple test that is used to assess a subject's mobility and requires both static and dynamic balance. TUG is a validated instrument that measures the time that a person takes to rise from a chair, walk 3 meters, turn around, walk back to the chair, and sit down. Subjects used their regular footwear, and their customary walking aid (no walkers allowed). Patients were also timed in a modified test (FSHD TUG), where they started from a supine position, then sat up, completed the TUG, and lay down again.

subjects with FSHD [3] = experiment: Reachable workspace, Open Label Study, exploratory annualized analysis; format: in vivo, human; details: with and without weights
Excerpt: In the Open Label Study, reachable workspace (RWS) with and without weights has also been evaluated. FIG. 27 provides exploratory annualized percentage changes of RWS from baseline of patients participating in the study.

subjects with FSHD [4] = experiment: FSHD-TUG; parameters: species or system human; details: in vivo
Experimental: as §1

subjects with FSHD [5] = experiment: Hand-held dynamometry, maximum voluntary isometric contraction (MVICT); format: in vivo, human
Experimental: Quantitative isometric dynamometry strength assessments were performed at all visits, except for Week 16. The MicroFET2 hand-held dynamometer was used to measure strength in the bilateral shoulders, elbow flexors and extensors, and ankle dorsiflexors. The Jamar Plus Digital Hand Dynamometer was used to measure bilateral grip strengths. Standard physical therapy techniques were used. Assessment of maximum voluntary isometric contraction (MVICT) was conducted with a hand-held dynamometer.

[6] = open-label 15 mg twice daily, 52 weeks

Cc1c(F)cc(C(=O)NC2CC2)cc1-c1ccc(C(=O)NCC(C)(C)C)cn1 [losmapimod, 6-(5-cyclopropylcarbamoyl-3-fluoro-2-methyl-phenyl)-N-(2,2-dimethylpropyl-)-nicotinamide]
Mean (SD) change from baseline in echogenicity of all muscles (subjects with FSHD1; [6]): -0.17 (0.9) z-score | Mean (SD) change from baseline in echogenicity, lower extremities (subjects with FSHD1; [6]): −0.13 (1.0) z-score | Mean (SD) change from baseline in echogenicity, upper extremity muscles (subjects with FSHD1; [6]): −0.32 (0.9) z-score | Distribution of echogenicity z-scores of muscles at baseline versus the last visit (subjects with FSHD1; z-score classes <2, 2-4, 4-6, >6): stayed the same or decreased | Reduction of pHSP27/HSP27total compared to placebo at Cmax (p38a/b MAPK pathway): 48.0-70.2% | Physical function as measured by gait velocity (patients with FSHD1): tends to increase | RSA change, dominant arm (subjects with FSHD [1]; 0-1.25 scale): 0.019 | RSA change, non-dominant arm (subjects with FSHD [1]; 0-1.25 scale): 0.021 | RSA difference vs placebo, non-dominant arm (subjects with FSHD [1]; 0-1.25 scale, 95% CI 0.0007, 0.09, p<0.05): 0.045 | RSA difference vs placebo, dominant arm (subjects with FSHD [1]; 0-1.25 scale, 95% CI 0.017, 0.118, p=0.01): 0.067 | Annualized rate of change in total RSA, non-dominant, annual percent change (subjects with FSHD [1]; weighted assessment, p=0.01): 4.88% | Annualized rate of change in total RSA, dominant, annual percent change (subjects with FSHD [1]; weighted assessment, p=0.07): 0.28% | Progression in TUG time (subjects with FSHD [2]): 0.16 s | TUG time difference vs placebo (subjects with FSHD [2]): 0.58 s | Annualized RWS increase from baseline, Q1 and Q3 (largest increases) (subjects with FSHD [3]): 7-17% | FSHD-TUG vs placebo (subjects with FSHD [4]): no difference | MVICT strength change, ankle dorsiflexors, left ankle (subjects with FSHD [5]; Wk48, post-hoc): 27.17% | MVICT strength change, ankle dorsiflexors, right ankle (subjects with FSHD [5]; Wk48, post-hoc): 12.72% | MVICT strength change, shoulder abductors, non-dominant shoulder (subjects with FSHD [5]; Wk48, post-hoc): 17.85% | MVICT strength change, shoulder abductors, dominant shoulder (subjects with FSHD [5]; Wk48, post-hoc, ns): −3.79% | MVICT difference vs placebo, non-dominant shoulder (subjects with FSHD [5]; Wk48, post-hoc, p<0.01): 34.89 | MVICT difference vs placebo, right ankle (subjects with FSHD [5]; Wk48, post-hoc, p<0.05): 38.39 | MVICT difference vs placebo, left ankle (subjects with FSHD [5]; Wk48, post-hoc, p=0.11): 37.37 | Average or MVICT in other muscle groups (bilateral hand grip, elbow flexors or extensors) (subjects with FSHD [5]; vs placebo): No difference
